From patent US4160839A, “Carbamyltriazole insecticides” (priority 1976, dated 1979)

Key:
insects = test: Insecticidal activity (general statement); settings: statement in words
[1] = Oral toxicity test on laboratory rats; settings: rat, in vivo, in corn oil as additive to the diet, read-out: LD50 (oral lethal dose for 50 percent kill of laboratory rats)
Procedure: (§1) Results obtained with the novel insecticides of this invention at various concentrations of active chemical are tabulated below. The ratings given are for averages of three or more replicates. The oral lethal dose for 50 percent kill of laboratory rats is also recorded in the table. In conducting the toxicity tests on rats, 0.01 g of active chemical per ml in corn oil is employed as an additive to the diet of the animals.

[2] = system: Southern Corn Rootworm (SCR); test: Southern Corn Rootworm (SCR) soil treatment test, root feeding damage on corn; type: in vivo; design: scale not given here; settings: nine days after treatment
Procedure: Three 5 oz paper cups planted each with one kernel of DeKalb XL-361 corn are treated two days after planting with 10 ml of a 125 ppm solution of the candidate compound. Compounds with high efficacy are treated at lower concentrations. The experiment is a 4×5 factorial in a randomized complete block design with three replications. The tests are evaluated nine days after treatment. The roots are inspected under a dissecting microscope and rated as follows:
(§2) So as to obtain more meaningful results, all tests are performed at the same time of day, whenever possible, usually in the forenoon. Temperature,illumination and humidity are the same in all tests. Atmospheric pressure is not controlled.
as §1

two-spotted mites (TSM) = test: Spray test, two-spotted mites (TSM) on bean plants; type: in vivo; settings: approx. 48 h after spraying
Procedure: (§3) Three 5 oz paper cups containing Henderson dwarf lima bean plants and one 5 oz paper cup containing Orange Gem nasturtiums, all growing in vermiculite, are placed on a turntable and sprayed to thorough wetness with 25 ml of a solution of the candidate chemical at the appropriate concentration. Nasturtiums were already infested with 50-100 bean aphids (BA). A bean plant in one paper cup was already infested with 50-100 two-spotted mites (TSM). Leaves from the two remaining bean plants are removed following spraying and placed in disposable petri dishes with 5 southern armyworm (SA) larvae in one petri dish, and 5 Mexican bean beetle (MBB) larvae in the other petri dish. The rating is done approximately 48 hours after spraying as follows:
as §2, §1

[3] = system: Mexican bean beetle (MBB) larvae; test: Spray test, Mexican bean beetle (MBB) larvae on bean leaves; type: in vivo; settings: approx. 48 h after spraying
Procedure: as §3, §2, §1

[4] = system: southern armyworm (SA) larvae; test: Spray test, southern armyworm (SA) larvae on bean leaves; type: in vivo; settings: approx. 48 h after spraying
Procedure: as §3, §2, §1

bean aphids (BA) = test: Spray test, bean aphids (BA) on nasturtiums; type: in vivo; settings: approx. 48 h after spraying
Procedure: as §3, §2, §1

| SMILES | LD50 [1] [mg/kg] | SCR Rating (root feeding damage) ([2]; 25 ppm) | TSM rating (dead adults) (two-spotted mites (TSM); 500 ppm) | MBB rating (larvae dead) ([3]; 15 ppm) | MBB rating (larvae dead) ([3]; 31 ppm) | MBB rating (larvae dead) ([3]; 62 ppm) | MBB rating (larvae dead) ([3]; 125 ppm) | MBB rating (larvae dead) ([3]; 250 ppm) | MBB rating (larvae dead) ([3]; 500 ppm) | SA rating (larvae dead) ([4]; 500 ppm) | BA rating (dead) (bean aphids (BA); 2 ppm) | BA rating (dead) (bean aphids (BA); 4 ppm) | BA rating (dead) (bean aphids (BA); 8 ppm) | BA rating (dead) (bean aphids (BA); 15 ppm) | BA rating (dead) (bean aphids (BA); 31 ppm) | BA rating (dead) (bean aphids (BA); 62 ppm) | BA rating (dead) (bean aphids (BA); 125 ppm) | BA rating (dead) (bean aphids (BA); 250 ppm) | BA rating (dead) (bean aphids (BA); 500 ppm) | SCR Rating (root feeding damage) ([2]; 12 ppm) | also measured |
| --- | --- | --- | --- | --- | --- | --- | --- | --- | --- | --- | --- | --- | --- | --- | --- | --- | --- | --- | --- | --- | --- |
| C#CCSc1nc(C2CCCCC2)nn1C(=O)N(C)C [1-N,N-dimethylcarbamyl-3-cyclohexyl-5-propargylthio-1,2,4-triazole] | – | – | – | – | – | – | – | – | – | – | – | – | – | – | – | – | – | – | – | – | insecticidal activity (insects): virtually useless as insecticides |
| C=CCSc1nc(C(C)(C)C)nn1C(=O)N(C)C [R=2-propenyl (allyl), R'=tert.butyl, 1-Dimethylcarbamyl-3-tert.butyl-5-allylthio-1H-1,2,4-triazole] | 17 | 2.5 | 0 (no dead adults) | 0 (no larvae dead) | 0 (no larvae dead) | 1 (1 -25% larvae dead) | 5 (100% larvae dead) | 5 (100% larvae dead) | 5 (100% larvae dead) | 1 (1-25% larvae dead) | 2 (26-50% dead) | 3 (51-75% dead) | 4 (76-99% dead) | 5 (100% dead) | 5 (100% dead) | 5 (100% dead) | 5 (100% dead) | 5 (100% dead) | 5 (100% dead) | – | – |
| C#CCSc1nc(C(C)(C)C)nn1C(=O)N(C)C [R=2-propynyl, R'=tert.butyl] | > 50 | – | 1 (1-25% dead adults) | 4 (76-99% larvae dead) | 5 (100% larvae dead) | 5 (100% larvae dead) | 5 (100% larvae dead) | 5 (100% larvae dead) | 5 (100% larvae dead) | 5 (100% larvae dead) | – | 5 (100% dead) | 5 (100% dead) | 5 (100% dead) | 5 (100% dead) | 5 (100% dead) | 5 (100% dead) | 5 (100% dead) | 5 (100% dead) | 4.5 | SCR Rating (root feeding damage) ([2]; 6 ppm): 3.5; MBB rating (larvae dead) ([3]; 4 ppm): 0 (no larvae dead); MBB rating (larvae dead) ([3]; 8 ppm): 0 (no larvae dead); SA rating (larvae dead) ([4]; 15 ppm): 0 (no larvae dead); SA rating (larvae dead) ([4]; 31 ppm): 0 (no larvae dead); SA rating (larvae dead) ([4]; 62 ppm): 0 (no larvae dead); SA rating (larvae dead) ([4]; 125 ppm): 2 (26-50% larvae dead); SA rating (larvae dead) ([4]; 250 ppm): 5 (100% larvae dead) |
| C=CCSc1nc(C2CC2)nn1C(=O)N(C)C [R=2-propenyl (allyl), R'=cyclopropyl] | 5 to 10 | 3.0 | 5 (100% dead adults) | 0 (no larvae dead) | 0 (no larvae dead) | 0 (no larvae dead) | 2 (26-50% larvae dead) | 5 (100% larvae dead) | 5 (100% larvae dead) | 5 (100% larvae dead) | 4 (76-99% dead) | 5 (100% dead) | 5 (100% dead) | 5 (100% dead) | 5 (100% dead) | 5 (100% dead) | 5 (100% dead) | 5 (100% dead) | 5 (100% dead) | 2.5 | SCR Rating (root feeding damage) ([2]; 3 ppm): 3.0; SCR Rating (root feeding damage) ([2]; 6 ppm): 2.5; SCR Rating (root feeding damage) ([2]; 50 ppm): 3.5; TSM rating (dead adults) (two-spotted mites (TSM); 15 ppm): 0 (no dead adults); TSM rating (dead adults) (two-spotted mites (TSM); 31 ppm): 0 (no dead adults); TSM rating (dead adults) (two-spotted mites (TSM); 62 ppm): 3 (51-75% dead adults); TSM rating (dead adults) (two-spotted mites (TSM); 125 ppm): 5 (100% dead adults); TSM rating (dead adults) (two-spotted mites (TSM); 250 ppm): 5 (100% dead adults); SA rating (larvae dead) ([4]; 15 ppm): 0 (no larvae dead); SA rating (larvae dead) ([4]; 31 ppm): 0 (no larvae dead); SA rating (larvae dead) ([4]; 62 ppm): 0 (no larvae dead); SA rating (larvae dead) ([4]; 125 ppm): 0 (no larvae dead); SA rating (larvae dead) ([4]; 250 ppm): 0 (no larvae dead) |
| C#CCSc1nc(C(C)C)nn1C(=O)N(C)C [R=2-propynyl, R'=isopropyl] | ~50 | 1.3 | 0 (no dead adults) | 0 (no larvae dead) | 4 (76-99% larvae dead) | 5 (100% larvae dead) | 5 (100% larvae dead) | 5 (100% larvae dead) | 5 (100% larvae dead) | 5 (100% larvae dead) | 0 (none dead) | 3 (51-75% dead) | – | 5 (100% dead) | 5 (100% dead) | – | 5 (100% dead) | 5 (100% dead) | 5 (100% dead) | 0.3 | SCR Rating (root feeding damage) ([2]; 50 ppm): 2.7; SA rating (larvae dead) ([4]; 15 ppm): 0 (no larvae dead); SA rating (larvae dead) ([4]; 31 ppm): 0 (no larvae dead); SA rating (larvae dead) ([4]; 62 ppm): 0 (no larvae dead); SA rating (larvae dead) ([4]; 125 ppm): 3 (51-75% larvae dead); SA rating (larvae dead) ([4]; 250 ppm): 5 (100% larvae dead) |
